Data set [1] deals with rat adjuvant arthritis. The experiment in a line: Effect on the Development of Adjuvant Arthritis. The settings on record: oral; for inhibition in vivo at 100 mg/kg / inhibition in vivo at 50 mg/kg: Rattus norvegicus, 504 h, 21 days after adjuvant, mean ± standard error. The data set is classed as in vivo, Fischer male rats. The procedure:
Fischer male rats (8 weeks old; body weight 120-180 g) were grouped so that the average of body weights among the groups were nearly the same. Then, 0.1 ml of complete adjuvant obtained by suspending Mycobacterium butyricum (Difco Laboratories) in paraffin oil in a concentration of 6 mg/ml was injected into the footpad of the right hind paw to induce adjuvant arthritis.
Each of the test compounds was dissolved or suspended in a 1% gum arabic solution, and administered orally once a day on six days a week over a period of three weeks starting from the day of the adjuvant injection. The group administered with a 1% gum arabic solution instead of the test compound was served for a control. The volumes of both hind paws were measured plethysmographically by displacement of water at various times after injection of the adjuvant, and the percent paw edema inhibition was calculated from the following equation. [formula] Eexp : the percent paw edema in rats treated with the test compound Econt : the mean of percent paw edema in rats of the control group
The percent paw edema was calculated from the following equation. [formula] Vpost : the paw volume after treatment with the adjuvant Vpre : the paw volume before treatment with the adjuvant

For data set [2], the system named is Delayed-Type Hypersensitivity (DTH), enhanced immune reaction. The experiment in a line: Effect on Delayed-Type Hypersensitivity (DTH): enhanced immune reaction. The data set is classed as in vivo, BALB/c male mice. The settings on record: for Footpad swelling inhibition / Footpad swelling: oral, cyclophosphamide 75 mg/kg; for Footpad swelling: mean ± standard error. The procedure:
Three days after the sensitization, 0.05 ml of 8×10^9 /ml SRBC was injected into the footpad of the right hind paw for elicitation of DTH. Twenty four hours later, footpad swelling (mm) was measured in the same way as in (A) above, and the inhibition (%) of footpad swelling was calculated from the following equation.
The test compound was dissolved or suspended in a 1% gum arabic solution, and administered orally once a day over a period of 7 days starting from four days before the sensitization (immediately after administration of cyclophosphamide). To a control group, a 1% gum arabic solution was administered instead of the test compound. The group, administered with physiological saline instead of cyclophosphamide and a 1% gum arabic solution instead of test compound respectively, was served for a normal group. [formula] Tcont : the mean of the footpad swelling in mice of the control group Texp : the mean of the footpad swelling in mice treated with the test compound
Tnor : the mean of the footpad swelling in mice of the normal group.

For data set [3], the system named is Delayed-Type Hypersensitivity (DTH), normal immune reaction. The experiment in a line: Effect on Delayed-Type Hypersensitivity (DTH): normal immune reaction. The data set is classed as in vivo, BALB/c male mice. The settings on record: for Footpad swelling inhibition / Footpad swelling: oral, normal immune reaction; for Footpad swelling: mean ± standard error. The procedure:
BALB/c male mice (8 weeks old) were sensitized by injection into the tail vein with 0.2 ml of 5×10^6 /ml sheep red blood cells (SRBC). Three days after the sensitization, 0.05 ml of 8×10^9 /ml SRBC was injected into the footpad of the right hind paw for elicitation of DTH. Footpad thickness was measured immediately before and 24 hours after the elicitation with a dial thickness gauge. The level of DTH was expressed as footpad swelling (mm) at 24 hour. The inhibition (%) of footpad swelling was calculated from the following equation.
The test compound was dissolved or suspended in a 1% gum arabic solution, and administered orally once a day over a period of 7 days starting from four days before the sensitization. To a control group, a 1% gum arabic solution was administered instead of the test compound. [formula] Texp : the mean of the footpad swelling in mice treated with the test compound
Tcont : the mean of the footpad swelling in mice of the control group

Data set [4] in a line: in vivo. The settings on record: mouse, oral, mice died within a week, probit method. The procedure: ddY male mice (body weight about 23 g) were fasted overnight, and the test compound dissolved or suspended in a 1% gum arabic solution administered orally. From the number of mice died within a week, the LD50 value was calculated by the probit method.
The subject of data set [5] is rat carrageenin-induced paw edema. The experiment in a line: rat carrageenin-induced paw edema (acute inflammation). It counts as in vivo. The settings on record: 100 mg/kg.
In data set [6] the test system is rat mustard-induced paw edema. The data set is described as follows: rat mustard-induced paw edema (subacute inflammation). The settings on record: 100 mg/kg. It counts as in vivo.
[7] abbreviates: 100 mg/kg, read-out: Paw edema inhibition, Non-treated paw.
Where [8] appears, read: 100 mg/kg, read-out: Paw edema inhibition, Treated paw.
Setting [9] is: 3 mg/kg, ** P < 0.01 vs control.
Setting [10] is: 10 mg/kg, ** P < 0.01 vs control.
[11] abbreviates: 30 mg/kg, * P < 0.05, ** P < 0.01 vs control.
The mark [12] stands for this setting: 100 mg/kg, * P < 0.05 vs control.

“Also recorded” adds a separate entry of the source. Where two headings read alike, the source gives them in different places.

Usually LD50 stands for the dose at which mortality reaches 50%. High values mean lower toxicity, low ones greater toxicity.

For the compound `CC(=O)Oc1ccc2sc(-c3ccc(C)cc3)nc2c1` [A, 5-acetoxy-2-(4-methylphenyl)benzothiazole], the values for the inhibition in vivo at 100 mg/kg in data set [1] (setting [7]) and in data set [1] (setting [8]) were 4.5 ± 11.7% and 12.9 ± 4.4%, respectively.

In the case of `CC(=O)Oc1ccc2nc(-c3ccc(C)cc3)sc2c1` [B, 6-acetoxy-2-(4-methylphenyl)benzothiazole], the inhibition in vivo at 100 mg/kg is 4.4 ± 14.2% in data set [1] (setting [7]) and -7.6 ± 8.8% in data set [1] (setting [8]).

In the case of `CC(=O)Oc1cccc2nc(-c3ccc(C)cc3)sc12` [C, 7-acetoxy-2-(4-methylphenyl)benzothiazole], the inhibition in vivo at 100 mg/kg in data set [1] (setting [7]) came out at 8.9 ± 10.4%; in data set [1] (setting [8]), 16.6 ± 4.1%.

Turning to `CC(=O)Oc1cccc2sc(-c3ccc(C)cc3)nc12` [Example 5, 4-Acetoxy-2-(4-methylphenyl)benzothiazole], the Footpad swelling inhibition in data set [2] (1 mg/kg) is given as 57.1%; in data set [2] (3 mg/kg), 66.7%; in data set [2] (10 mg/kg), 85.7%; in data set [2] (30 mg/kg) it was 76.2%; in data set [2] (100 mg/kg) it was 57.1%; in data set [3] (1 mg/kg), 0.0%. Further, the Footpad swelling inhibition in data set [3] (3 mg/kg) is -6.8%; in data set [3] (10 mg/kg) it was 3.4%; in data set [3] (30 mg/kg) it was -8.5%; in data set [3] (100 mg/kg), 10.2%. The Footpad swelling is 37 ± 5 × 10^-2 mm in data set [2] (1 mg/kg, * P < 0.05 vs control); 35 ± 1 × 10^-2 mm in data set [2] (setting [9]); 31 ± 3 × 10^-2 mm in data set [2] (setting [10]); 33 ± 2 × 10^-2 mm in data set [2] (setting [11]); 37 ± 4 × 10^-2 mm in data set [2] (setting [12]); 59 ± 5 × 10^-2 mm in data set [3] (1 mg/kg). For the same compound, the Footpad swelling in data set [3] (3 mg/kg) was 63 ± 6 × 10^-2 mm; in data set [3] (10 mg/kg), 57 ± 6 × 10^-2 mm; in data set [3] (30 mg/kg), 64 ± 6 × 10^-2 mm; in data set [3] (100 mg/kg) it was 53 ± 4 × 10^-2 mm. Also, the inhibition in vivo at 100 mg/kg came out at 32 ± 7.7% in data set [1] (setting [7]) and 31.8 ± 3.9% in data set [1] (setting [8]). The compound further returned an LD50 at 168 h in data set [4] greater than 3000 mg/kg.

Turning to `COc1ccc(-c2nc3c(OC(C)=O)cccc3s2)cc1` [Example 6, 4-Acetoxy-2-(4-methoxyphenyl)benzothiazole], the inhibition in vivo at 100 mg/kg was determined as 27.4 ± 10.8% in data set [1] (setting [7]) and 24.7 ± 3.7% in data set [1] (setting [8]). The same compound displayed an LD50 at 168 h in data set [4] greater than 3000 mg/kg.

In the case of `CC(=O)Oc1cccc2sc(-c3ccc(C(=O)O)cc3)nc12` [Example 7, 4-(4-Acetoxybenzothiazol-2-yl)benzoic acid], the inhibition in vivo at 100 mg/kg in data set [1] (setting [7]) came out at 38.5 ± 6%; in data set [1] (setting [8]), 29.9 ± 2.9%. Moreover, the LD50 at 168 h in data set [4] was 2020 mg/kg.

Regarding `COC(=O)c1ccc(-c2nc3c(OC(C)=O)cccc3s2)cc1` [Example 8, Methyl 4-(4-acetoxybenzothiazol-2-yl)benzoate], the inhibition in vivo at 100 mg/kg stood at 28.6 ± 8.8% in data set [1] (setting [7]) and 29.3 ± 3.6% in data set [1] (setting [8]). In data set [4], this compound had an LD50 at 168 h greater than 3000 mg/kg.

For `O=C([O-])c1ccccc1Nc1cc(Cl)ccc1C(=O)[O-].[Na+].[Na+]` [Lobenzarit disodium, N-(2-carboxyphenyl)-4-chloroanthranilic acid disodium salt], the Footpad swelling inhibition is listed as 20.0% in data set [2] (1 mg/kg); 40.0% in data set [2] (3 mg/kg); -10.0% in data set [2] (10 mg/kg); 50.0% in data set [2] (30 mg/kg); 50.0% in data set [2] (100 mg/kg); 4.3% in data set [3] (1 mg/kg). The Footpad swelling inhibition is 8.6% in data set [3] (3 mg/kg), -8.6% in data set [3] (10 mg/kg), 7.1% in data set [3] (30 mg/kg) and 7.1% in data set [3] (100 mg/kg). The Footpad swelling in data set [2] (1 mg/kg, * P < 0.05 vs control) is reported as 47 ± 3 × 10^-2 mm; in data set [2] (setting [9]) it was 43 ± 3 × 10^-2 mm; in data set [2] (setting [10]), 53 ± 3 × 10^-2 mm; in data set [2] (setting [11]), 41 ± 3 × 10^-2 mm; in data set [2] (setting [12]), 41 ± 3 × 10^-2 mm; in data set [3] (1 mg/kg) it was 67 ± 2 × 10^-2 mm. Further, the Footpad swelling is 64 ± 5 × 10^-2 mm in data set [3] (3 mg/kg), 76 ± 6 × 10^-2 mm in data set [3] (10 mg/kg), 65 ± 4 × 10^-2 mm in data set [3] (30 mg/kg) and 65 ± 5 × 10^-2 mm in data set [3] (100 mg/kg). Besides, in data set [2] (any doses), the “effect on DTH in an enhanced immune reaction (in words)” value is listed as “suppresses an abnormally enhanced immune reaction”. For the same compound, in data set [1] (100 mg/kg, adjuvant arthritis rats, footnote of Table 1), the “death during the test” value is listed as “Four animals out of 16”. Also, the inhibition in vivo at 50 mg/kg in data set [1] (read-out: Paw edema inhibition, Non-treated paw) was -9 ± 12%; in data set [1] (read-out: Paw edema inhibition, Treated paw) it was 6.3 ± 5.3%. Moreover, the inhibition in vivo at 100 mg/kg in data set [1] (setting [7]) is -1.7 ± 11.4%; in data set [1] (setting [8]), 15.1 ± 6.6%. Further, in data set [3] (any doses, disodium salt), the “effect on DTH in a normal immune reaction (in words)” value is given as “did not inhibit footpad swelling at any doses; also recorded: no effect on a normal immune reaction”. The “effect on rat carrageenin-induced paw edema” value in data set [5] is “no effect”. For the same compound, the “effect on rat mustard-induced paw edema” value in data set [6] is recorded as “no effect”.

The record behind these values is US4910211A, “Novel benzothiazole and antirheumatic agent comprising it as an active ingredient” (Kanebo Ltd., priority 1987, dated 1990).
